From patent publication US7795290B2 (Genentech, Inc., priority 2004, dated 2010)

How the values were obtained:
Test in all cases: HTS ATP-utilizing enzyme assay, off-chip mobility-shift (Caliper HTS 250)
Type in all cases: biochemical
PDK1 = molecular target: T1, PDK1 (Homo sapiens, UniProt O15530); conditions: kinase named = inhibitory activity/selectivity; test compound 10 μM; active = greater than three-sigma from mean
T1 sequence (O15530 1-556): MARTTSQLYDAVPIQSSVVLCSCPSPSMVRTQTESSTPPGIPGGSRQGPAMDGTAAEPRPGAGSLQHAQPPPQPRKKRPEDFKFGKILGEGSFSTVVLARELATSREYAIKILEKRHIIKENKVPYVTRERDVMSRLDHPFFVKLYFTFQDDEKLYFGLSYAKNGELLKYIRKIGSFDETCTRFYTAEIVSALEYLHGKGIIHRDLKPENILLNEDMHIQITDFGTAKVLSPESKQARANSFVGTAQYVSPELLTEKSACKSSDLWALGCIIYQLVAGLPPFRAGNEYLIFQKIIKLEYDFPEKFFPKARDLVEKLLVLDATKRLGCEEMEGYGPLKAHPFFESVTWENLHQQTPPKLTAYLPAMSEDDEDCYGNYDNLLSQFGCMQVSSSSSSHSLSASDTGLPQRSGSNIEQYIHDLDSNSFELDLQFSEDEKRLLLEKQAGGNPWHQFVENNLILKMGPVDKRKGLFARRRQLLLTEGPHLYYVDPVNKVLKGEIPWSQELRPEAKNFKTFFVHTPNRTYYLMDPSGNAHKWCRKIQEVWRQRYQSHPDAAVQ
Outline: (§1)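 Single-point screen at 10 µM compound: kinase reactions ran 2.5 h at 20–22 °C and were stopped with termination buffer. Inhibition was read as the substrate-to-phosphopeptide ratio by microfluidic mobility shift, with EDTA and DMSO wells as controls. Hits were called by three-sigma limits.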

PDGFR-α = PDGFR-α (Homo sapiens, UniProt P16234); conditions: kinase named = inhibitory activity/selectivity; test compound 10 μM; active = greater than three-sigma from mean
PDGFR-α, sequence (P16234 24-1089): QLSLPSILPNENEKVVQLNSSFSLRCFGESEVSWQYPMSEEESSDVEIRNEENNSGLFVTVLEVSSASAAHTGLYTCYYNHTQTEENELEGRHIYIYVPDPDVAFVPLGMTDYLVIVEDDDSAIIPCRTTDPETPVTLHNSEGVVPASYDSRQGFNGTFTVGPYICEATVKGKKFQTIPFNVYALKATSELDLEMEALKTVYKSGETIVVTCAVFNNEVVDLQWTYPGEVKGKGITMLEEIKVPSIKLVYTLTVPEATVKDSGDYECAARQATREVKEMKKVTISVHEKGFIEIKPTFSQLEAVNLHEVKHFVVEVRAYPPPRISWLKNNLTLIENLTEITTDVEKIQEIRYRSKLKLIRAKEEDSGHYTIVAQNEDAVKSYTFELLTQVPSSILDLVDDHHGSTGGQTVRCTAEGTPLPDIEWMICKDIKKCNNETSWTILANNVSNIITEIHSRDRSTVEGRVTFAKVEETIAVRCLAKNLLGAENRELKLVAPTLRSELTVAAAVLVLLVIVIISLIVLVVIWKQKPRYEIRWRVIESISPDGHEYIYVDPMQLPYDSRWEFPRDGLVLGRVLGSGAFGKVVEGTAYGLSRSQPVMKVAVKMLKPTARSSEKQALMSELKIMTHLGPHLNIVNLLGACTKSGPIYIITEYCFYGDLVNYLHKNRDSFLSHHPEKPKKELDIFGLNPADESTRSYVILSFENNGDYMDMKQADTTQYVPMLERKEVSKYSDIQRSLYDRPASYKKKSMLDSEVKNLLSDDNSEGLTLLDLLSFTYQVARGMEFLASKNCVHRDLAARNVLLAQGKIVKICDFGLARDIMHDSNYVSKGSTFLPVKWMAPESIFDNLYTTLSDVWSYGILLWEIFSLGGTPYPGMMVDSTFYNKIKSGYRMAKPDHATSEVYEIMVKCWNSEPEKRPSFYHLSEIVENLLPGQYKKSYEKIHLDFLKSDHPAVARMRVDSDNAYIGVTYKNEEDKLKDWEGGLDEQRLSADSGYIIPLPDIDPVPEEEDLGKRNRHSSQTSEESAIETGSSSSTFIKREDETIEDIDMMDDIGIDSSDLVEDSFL
Outline: as §1

FLT-3 = molecular target: T2, FLT-3 (Homo sapiens, UniProt P36888); conditions: kinase named = inhibitory activity/selectivity; test compound 10 μM; active = greater than three-sigma from mean
T2 sequence (P36888 27-993): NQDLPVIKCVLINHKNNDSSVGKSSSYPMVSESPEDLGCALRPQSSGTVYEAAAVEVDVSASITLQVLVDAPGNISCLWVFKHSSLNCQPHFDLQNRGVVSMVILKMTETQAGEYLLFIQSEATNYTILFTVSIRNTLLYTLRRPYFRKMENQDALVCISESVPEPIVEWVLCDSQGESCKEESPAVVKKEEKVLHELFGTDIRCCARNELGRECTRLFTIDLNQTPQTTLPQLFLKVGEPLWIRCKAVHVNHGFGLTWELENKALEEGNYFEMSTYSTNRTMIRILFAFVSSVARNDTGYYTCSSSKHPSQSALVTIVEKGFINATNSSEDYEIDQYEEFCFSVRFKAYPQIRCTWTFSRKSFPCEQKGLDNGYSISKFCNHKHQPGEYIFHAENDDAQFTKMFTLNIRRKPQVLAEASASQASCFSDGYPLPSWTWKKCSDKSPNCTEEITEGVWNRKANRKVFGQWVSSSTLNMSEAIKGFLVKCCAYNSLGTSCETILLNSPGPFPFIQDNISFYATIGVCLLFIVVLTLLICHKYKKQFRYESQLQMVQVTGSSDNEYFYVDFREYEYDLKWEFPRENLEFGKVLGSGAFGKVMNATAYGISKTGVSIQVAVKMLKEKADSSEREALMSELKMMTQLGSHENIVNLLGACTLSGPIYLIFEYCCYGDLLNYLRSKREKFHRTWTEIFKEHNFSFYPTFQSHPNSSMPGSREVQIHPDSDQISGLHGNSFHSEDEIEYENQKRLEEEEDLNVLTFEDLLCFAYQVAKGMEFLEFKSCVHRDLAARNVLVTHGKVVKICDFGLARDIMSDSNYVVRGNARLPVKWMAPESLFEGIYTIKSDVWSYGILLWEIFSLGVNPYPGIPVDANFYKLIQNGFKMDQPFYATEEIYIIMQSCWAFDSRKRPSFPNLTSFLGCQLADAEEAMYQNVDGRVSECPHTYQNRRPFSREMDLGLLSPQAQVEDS
Outline: as §1

ZAP70 = molecular target: T3, ZAP70 (Homo sapiens, UniProt P43403); conditions: kinase named = inhibitory activity/selectivity; test compound 10 μM; active = greater than three-sigma from mean
T3 sequence (P43403 1-619): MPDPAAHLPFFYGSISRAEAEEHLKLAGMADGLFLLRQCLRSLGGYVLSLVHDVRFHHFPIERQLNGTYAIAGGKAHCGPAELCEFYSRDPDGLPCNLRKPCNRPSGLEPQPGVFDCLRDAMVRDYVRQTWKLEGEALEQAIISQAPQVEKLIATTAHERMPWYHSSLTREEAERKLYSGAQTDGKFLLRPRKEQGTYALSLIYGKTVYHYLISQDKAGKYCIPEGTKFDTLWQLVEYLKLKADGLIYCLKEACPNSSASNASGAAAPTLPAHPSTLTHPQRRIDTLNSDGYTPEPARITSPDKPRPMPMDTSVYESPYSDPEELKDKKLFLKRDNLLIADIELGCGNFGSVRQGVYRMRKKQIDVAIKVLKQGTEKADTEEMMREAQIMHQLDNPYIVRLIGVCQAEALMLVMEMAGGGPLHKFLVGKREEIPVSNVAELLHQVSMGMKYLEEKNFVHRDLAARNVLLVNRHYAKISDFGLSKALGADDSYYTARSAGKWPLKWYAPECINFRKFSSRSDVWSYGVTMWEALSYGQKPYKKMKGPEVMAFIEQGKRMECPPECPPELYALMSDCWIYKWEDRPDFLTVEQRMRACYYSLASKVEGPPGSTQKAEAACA
Outline: as §1

KIT = KIT (Homo sapiens, UniProt P10721); conditions: kinase named = inhibitory activity/selectivity; test compound 10 μM; active = greater than three-sigma from mean
KIT, sequence (P10721 26-976): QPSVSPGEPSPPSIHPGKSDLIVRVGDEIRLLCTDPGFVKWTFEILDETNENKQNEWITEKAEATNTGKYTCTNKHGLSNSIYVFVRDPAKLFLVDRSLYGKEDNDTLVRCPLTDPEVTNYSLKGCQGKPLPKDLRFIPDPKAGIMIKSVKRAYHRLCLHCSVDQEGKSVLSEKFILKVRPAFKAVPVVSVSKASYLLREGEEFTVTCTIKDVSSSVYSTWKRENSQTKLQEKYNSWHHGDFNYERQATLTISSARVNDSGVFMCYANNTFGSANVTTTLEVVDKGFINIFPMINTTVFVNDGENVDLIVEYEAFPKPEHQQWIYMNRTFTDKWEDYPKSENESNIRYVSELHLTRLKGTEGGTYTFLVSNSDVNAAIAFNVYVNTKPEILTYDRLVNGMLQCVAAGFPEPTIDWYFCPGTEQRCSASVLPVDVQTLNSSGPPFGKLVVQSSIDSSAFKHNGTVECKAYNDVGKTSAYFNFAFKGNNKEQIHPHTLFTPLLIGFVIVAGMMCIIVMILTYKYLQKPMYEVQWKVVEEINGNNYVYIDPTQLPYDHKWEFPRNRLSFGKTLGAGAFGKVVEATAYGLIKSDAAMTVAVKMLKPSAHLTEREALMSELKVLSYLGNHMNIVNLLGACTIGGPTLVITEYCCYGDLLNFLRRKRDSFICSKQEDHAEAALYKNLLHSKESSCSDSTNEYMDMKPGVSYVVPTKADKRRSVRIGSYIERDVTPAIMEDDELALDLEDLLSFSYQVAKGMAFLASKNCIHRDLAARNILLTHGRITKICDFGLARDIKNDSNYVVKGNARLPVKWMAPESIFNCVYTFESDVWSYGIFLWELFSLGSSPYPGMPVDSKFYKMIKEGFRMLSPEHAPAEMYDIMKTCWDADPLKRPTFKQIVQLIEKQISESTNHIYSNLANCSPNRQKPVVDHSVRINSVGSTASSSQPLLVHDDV
Outline: as §1

DYRK2 = molecular target: T4, DYRK2 (Homo sapiens, UniProt Q92630); conditions: kinase named = inhibitory activity/selectivity; test compound 10 μM; active = greater than three-sigma from mean
T4 sequence (Q92630 1-601): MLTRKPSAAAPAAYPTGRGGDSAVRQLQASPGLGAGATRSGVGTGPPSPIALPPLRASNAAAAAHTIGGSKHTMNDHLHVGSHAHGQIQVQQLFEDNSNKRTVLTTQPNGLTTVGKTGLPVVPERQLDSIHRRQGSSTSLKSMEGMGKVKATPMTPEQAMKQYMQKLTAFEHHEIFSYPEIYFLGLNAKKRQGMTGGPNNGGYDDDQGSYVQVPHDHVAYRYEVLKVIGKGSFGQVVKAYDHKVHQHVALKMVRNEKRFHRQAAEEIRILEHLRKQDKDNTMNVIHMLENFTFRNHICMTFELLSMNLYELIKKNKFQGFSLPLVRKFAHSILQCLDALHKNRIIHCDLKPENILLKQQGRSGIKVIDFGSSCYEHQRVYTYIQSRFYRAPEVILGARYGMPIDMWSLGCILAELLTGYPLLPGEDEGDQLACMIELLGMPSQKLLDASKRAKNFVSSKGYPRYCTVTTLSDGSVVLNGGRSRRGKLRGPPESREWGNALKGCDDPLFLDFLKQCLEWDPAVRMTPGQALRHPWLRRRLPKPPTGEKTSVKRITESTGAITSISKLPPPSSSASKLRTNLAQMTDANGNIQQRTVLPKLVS
Outline: as §1

CHEK2 = CHEK2 (Homo sapiens, UniProt O96017); conditions: kinase named = inhibitory activity/selectivity; test compound 10 μM; active = greater than three-sigma from mean
CHEK2, sequence (O96017 whole entry): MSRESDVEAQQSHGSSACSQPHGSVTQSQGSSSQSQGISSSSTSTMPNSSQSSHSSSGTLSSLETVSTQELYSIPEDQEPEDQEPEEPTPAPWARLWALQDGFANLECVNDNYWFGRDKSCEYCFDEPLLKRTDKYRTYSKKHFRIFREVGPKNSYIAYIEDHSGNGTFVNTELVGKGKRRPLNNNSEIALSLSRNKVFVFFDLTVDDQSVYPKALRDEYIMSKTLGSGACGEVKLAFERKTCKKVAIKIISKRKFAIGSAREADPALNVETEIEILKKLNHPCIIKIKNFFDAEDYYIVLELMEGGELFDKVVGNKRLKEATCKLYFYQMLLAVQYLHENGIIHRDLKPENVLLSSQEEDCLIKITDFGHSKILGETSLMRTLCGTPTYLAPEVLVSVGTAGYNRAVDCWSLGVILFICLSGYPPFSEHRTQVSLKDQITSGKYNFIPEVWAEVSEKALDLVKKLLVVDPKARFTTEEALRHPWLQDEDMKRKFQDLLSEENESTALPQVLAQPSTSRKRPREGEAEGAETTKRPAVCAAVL
Outline: as §1

CASPASE-7 = molecular target: T5, CASPASE-7 (Homo sapiens, UniProt P55210); conditions: enzyme named = inhibitory activity/selectivity; test compound 10 μM; active = greater than three-sigma from mean
T5 sequence (P55210 24-198 limits assumed): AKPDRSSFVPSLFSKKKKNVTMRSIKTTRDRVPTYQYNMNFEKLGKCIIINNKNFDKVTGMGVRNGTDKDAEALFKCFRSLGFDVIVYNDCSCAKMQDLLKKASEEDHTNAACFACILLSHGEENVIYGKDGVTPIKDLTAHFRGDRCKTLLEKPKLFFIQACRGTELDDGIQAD
T5 sequence (P55210 207-303 limits assumed): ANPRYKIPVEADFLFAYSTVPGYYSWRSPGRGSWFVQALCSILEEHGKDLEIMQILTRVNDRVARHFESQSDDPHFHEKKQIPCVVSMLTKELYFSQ
Outline: as §1

BMX = molecular target: T6, BMX (Homo sapiens, UniProt P51813); conditions: kinase named = inhibitory activity/selectivity; test compound 10 μM; active = greater than three-sigma from mean
T6 sequence (P51813 1-675): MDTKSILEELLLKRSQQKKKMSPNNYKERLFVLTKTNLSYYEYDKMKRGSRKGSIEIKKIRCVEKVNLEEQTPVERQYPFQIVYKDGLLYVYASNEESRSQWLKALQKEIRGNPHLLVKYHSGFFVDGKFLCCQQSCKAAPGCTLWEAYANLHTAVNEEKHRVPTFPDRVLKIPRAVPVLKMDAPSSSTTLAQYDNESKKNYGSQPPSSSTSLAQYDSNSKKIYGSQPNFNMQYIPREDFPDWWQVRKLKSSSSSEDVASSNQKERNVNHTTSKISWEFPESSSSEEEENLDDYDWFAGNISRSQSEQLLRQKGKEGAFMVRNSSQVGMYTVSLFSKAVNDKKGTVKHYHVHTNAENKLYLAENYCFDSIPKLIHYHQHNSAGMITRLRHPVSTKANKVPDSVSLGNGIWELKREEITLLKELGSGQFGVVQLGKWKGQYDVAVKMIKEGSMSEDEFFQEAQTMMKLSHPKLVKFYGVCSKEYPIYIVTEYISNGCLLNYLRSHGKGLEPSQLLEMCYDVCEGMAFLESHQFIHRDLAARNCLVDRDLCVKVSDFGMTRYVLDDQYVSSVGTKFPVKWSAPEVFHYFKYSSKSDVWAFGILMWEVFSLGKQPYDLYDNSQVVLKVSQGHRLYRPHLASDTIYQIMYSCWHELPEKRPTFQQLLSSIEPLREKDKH
Outline: as §1

In the case of `COc1ccc(-c2csc(N(CCCN3CCOCC3)C(=O)c3sc(C)nc3C)n2)cc1` [N-(4-(4-methoxyphenyl)thiazol-2-yl)-2,4-dimethyl-N-(3-morpholinopropyl)thiazole-5-carboxamide], the Activity (PDK1) is reported as “PDK1”.

In the case of `COc1ccc(-c2csc(N(CCCN3CCOCC3)C(=O)c3snnc3C)n2)cc1` [N-(4-(4-methoxyphenyl)thiazol-2-yl)-4-methyl-N-(3-morpholinopropyl)-1,2,3-thiadiazole-5-carboxamide], the Activity (PDGFR-α) is reported as “PDGFR-α”, the Activity (FLT-3) is reported as “FLT-3” and the Activity (ZAP70) is reported as “ZAP70”. The Activity (KIT) was “KIT” and the Activity (DYRK2) was “DYRK2”.

For `COc1ccc(OC)c(-c2csc(N(CCCN(C)C)C(=O)c3ccccc3)n2)c1` [N-(4-(2,5-dimethoxyphenyl)thiazol-2-yl)-N-(3-(dimethylamino)propyl)benzamide], the Activity (CHEK2) was “CHEK2” and the Activity (CASPASE-7) was “CASPASE-7”.

In the case of `COc1ccc(-c2csc(N(CCCN3CCOCC3)C(=O)Cc3ccccc3Cl)n2)cc1` [2-(2-chlorophenyl)-N-(4-(4-methoxyphenyl)thiazol-2-yl)-N-(3-morpholinopropyl)acetamide], the Activity (BMX) is reported as “BMX”.
